Reference: patent US20050239656A1, “Pyridine compounds or salts thereof and herbicides containing the same” (priority 2002, published 2005)

Key:
[1] = system: japanese bulrush; assay: Test Example 3: paddy pot test, application under submerged conditions; type: in vivo, Scirpus juncoides; conditions: submerged application at 0.5 leaf stage, visually observed 14 days after application, 0 = non-treated, 100 = complete kill
From the text: (§1) Paddy field soil was put into a 1/1,000,000 ha pot, and seed of barnyardgrass and japanese bulrush were sown and slightly covered with soil. Then, the pot was left to stand still in a greenhouse in a state where the depth of flooding water was from 0.5 to 1 cm, and one day or two days later, tubers of japanese ribbon wapato were planted. Thereafter, the depth of flooding water was maintained at a level of from 3 to 4 cm, and when barnyardgrass and japanese bulrush reached a 0.5 leaf stage and japanese ribbon wapato reached a primary leaf stage, an aqueous diluted solution of a wettable powder or emulsifiable concentrate having the compound of the present invention formulated in accordance with a usual formulation method, was uniformly applied under submerged conditions by a pipette so that the dose of the active ingredient would be at a predetermined level. On the 14 days after the application of the herbicide, the growth of barnyard grass, japanese burlrush and japanese ribbon wapato was visually observed and on the 21st day after the application of the herbicide, the growth of rice was visually observed, and the herbicidal effects were evaluated by the growth-controlling degrees (%) ranging from 0 (equivalent to the non-treated plot) to 100 (complete kill), whereby the results shown in Table 5 were obtained.

[2] = system: rice (var. Nihonbare); assay: Test Example 3: paddy pot test, transplanted rice; type: in vivo, Oryza sativa L.; conditions: applied 4th day after transplantation, visually observed 21st day after application, 0 = non-treated, 100 = complete kill
From the text: as §1, with “On the other hand, paddy field soil was put into a 1/1,000,000 ha pot and puddled and leveled, and the depth of flooding water was from 3 to 4 cm. Next day, rice (var. Nihonbare) of 2 leaf stage was transplanted in a depth of 3 cm. On the 4th day after the transplantation, the compound of the present invention was applied in the same manner as described above. On the 14 days” for “On the 14 days”

[3] = system: japanese ribbon wapato; assay: Test Example 3: paddy pot test, application under submerged conditions; type: in vivo, Sagittaria pygniaea; conditions: submerged application at primary leaf stage, visually observed 14 days after application, 0 = non-treated, 100 = complete kill
From the text: as §1

[4] = system: barnyardgrass; assay: as above; type: in vivo, Echinochloa crus-galli L.; conditions: submerged application at 0.5 leaf stage, visually observed 14 days after application, 0 = non-treated, 100 = complete kill
From the text: as §1

Compound | Growth controlling degree (%) Japanese bulrush ([1]; active ingredient 250 g/ha) [%] | Growth controlling degree (%) Rice ([2]; active ingredient 250 g/ha) [%] | Growth controlling degree (%) Japanese ribbon wapato ([3]; active ingredient 250 g/ha) [%] | Growth controlling degree (%) Barnyardgrass ([4]; active ingredient 250 g/ha) [%] | Growth controlling degree (%) Japanese bulrush ([1]; active ingredient 500 g/ha) [%] | Growth controlling degree (%) Rice ([2]; active ingredient 500 g/ha) [%] | Growth controlling degree (%) Japanese ribbon wapato ([3]; active ingredient 500 g/ha) [%] | Growth controlling degree (%) Barnyardgrass ([4]; active ingredient 500 g/ha) [%]
CCN(C(=O)Cc1ccccc1F)C(c1cnccc1C(F)(F)F)C(C)C (stereo not shown) [I-78] | 70 | 20 | 40 | 100 |  |  |  | 
CC(C)C(c1cnccc1Cl)N(C)C(=O)Cc1ccc(Cl)c(Cl)c1 (stereo not shown) [I-80] | 90 | 20 | 20 | 98 |  |  |  | 
Cc1ccccc1CC(=O)N(C)C(c1cnccc1Cl)C(C)C (stereo not shown) [I-83] | 98 | 10 | 20 | 98 |  |  |  | 
Cc1cccc(CC(=O)N(C)C(c2cnccc2Cl)C(C)C)c1 (stereo not shown) [I-88] | 70 | 0 | 50 | 100 |  |  |  | 
CC(C)C(c1cnccc1Cl)N(C)C(=O)Cc1c(F)ccc(F)c1F (stereo not shown) [I-89] | 95 | 0 | 40 | 100 |  |  |  | 
CC(C)C(c1cnccc1C(F)(F)F)N(C)C(=O)Cc1cc(Cl)cc(Cl)c1 (stereo not shown) [I-91] | 20 | 0 | 20 | 90 |  |  |  | 
CC(C)C(c1cccnc1)N(C)C(=O)Cc1ccccc1 (stereo not shown) [I-93] |  |  |  |  | 95 | 0 | 30 | 60
CCN(C(=O)Cc1cc(F)ccc1F)C(c1cnccc1C(F)(F)F)C(C)C (stereo not shown) [I-98] | 80 | 10 | 40 | 100 |  |  |  | 
Cc1ccc(F)c(CC(=O)N(C)C(c2cnccc2C(F)(F)F)C(C)C)c1 (stereo not shown) [I-108] | 100 | 10 | 60 | 98 |  |  |  | 
CC(C)C(c1cnccc1C(F)(F)F)N(C)S(=O)(=O)c1ccc(C(F)(F)F)cc1 (stereo not shown) [I-146] | 80 | 20 | 0 | 98 |  |  |  | 
CC(C)C(c1cnccc1C(F)(F)F)N(C)C(=O)C=COc1ccccc1 (stereo not shown) [I-166, N-methyl-N-[2-methyl-1-(4-trifluoromethylpyridin-3-yl)propyl]3-phenoxypropenamide] | 95 | 0 | 0 | 100 |  |  |  | 
CC(C)C(c1cnccc1C(F)(F)F)N(C)C(=O)C=Cc1ccc(Cl)cc1 (stereo not shown) [I-171] | 98 | 0 | 0 | 60 |  |  |  | 
CC(C)C(c1cnccc1C(F)(F)F)N(C)C(=O)C=Cc1cccs1 (stereo not shown) [I-173] | 95 | 0 | 30 | 90 |  |  |  | 
CC(=CC(=O)N(C)C(c1cnccc1C(F)(F)F)C(C)C)c1ccccc1 (stereo not shown) [I-174] | 95 | 0 | 0 | 10 |  |  |  | 
CC(C)C(c1cnccc1C(F)(F)F)N(C)C(=O)C=C1CCCC1 (stereo not shown) [I-176] | 98 | 0 | 0 | 98 |  |  |  | 
CC(C)C(c1cnccc1C(F)(F)F)N(C)C(=O)C=C1CCCCC1 (stereo not shown) [I-177] | 98 | 20 | 20 | 60 |  |  |  | 
CC(C)C(c1cnccc1C(F)(F)F)N(C)C(=O)C=Cc1cccc(Br)c1 (stereo not shown) [I-179] |  |  |  |  | 90 | 10 | 30 | 90
CC(C)C(c1cnccc1C(F)(F)F)N(C)C(=O)C=Cc1ccc2ccccc2c1 (stereo not shown) [I-188] |  |  |  |  | 0 | 0 | 0 | 100
CC(C)C(c1cnccc1C(F)(F)F)N(C)C(=O)C1CCCC1 (stereo not shown) [I-212] | 98 | 30 | 80 | 100 |  |  |  | 
CCN(C(=O)N(C)C(c1cnccc1C(F)(F)F)C(C)C)c1ccccc1 (stereo not shown) [I-233] |  |  |  |  | 90 | 10 | 40 | 95
CC(C)C(c1cnccc1C(F)(F)F)N(C)C(=O)COc1ccccc1Cl (stereo not shown) [I-235] | 90 | 0 | 60 | 100 |  |  |  | 
CC(C)C(c1cnccc1C(F)(F)F)N(C)C(=O)COc1ccc(Cl)cc1Cl (stereo not shown) [I-236] | 80 | 0 | 70 | 95 |  |  |  | 
CC(C)C(c1cnccc1C(F)(F)F)N(C)C(=O)COc1ccc([N+](=O)[O-])cc1 (stereo not shown) [I-237] | 95 | 0 | 40 | 95 |  |  |  | 
Cc1cccc(OCC(=O)N(C)C(c2cnccc2C(F)(F)F)C(C)C)c1 (stereo not shown) [I-238] | 95 | 20 | 60 | 95 |  |  |  | 
Cc1ccccc1OCC(=O)N(C)C(c1cnccc1C(F)(F)F)C(C)C (stereo not shown) [I-240] | 100 | 0 | 50 | 100 |  |  |  | 
